Test results from patent publication US9624215B2, “Amine derivative or salt thereof” (TOYAMA CHEMICAL CO., LTD., priority 2012, dated 2017).

Test system: normal human neonatal foreskin epidermal keratinocytes (NHEK-F)
Assay: Cell proliferation inhibition test
Format: cell-based
Conditions: Keratinocyte, 72 h, NHEK-F cells, three days incubation, ATPlite or CellTiterGlo, read-out: IC50 (concentration of the compound at which the cell count is reduced by 50%)
In short: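 NHEK-F keratinocytes, 2×10^3 per well in Humedia-EG2, plated overnight, then exposed to compound for three days. Cell count by ATPlite or CellTiterGlo luminescence; inhibition = 100 − (treated/untreated count)×100, IC50 as 50% reduction concentration.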

Q: How did the IC50 turn out when `COc1ccc(-c2cc(Nc3ncc(C4CC4)cc3C(=O)O)cc3ccn(C)c23)cc1` [Example 487, 5-cyclopropyl-2-((7-(4-methoxyphenyl)-1-methyl-1H-indol-5-yl)amino)nicotinic acid] was run?
A: ≤ 10 nM

Q: `Cn1ccc2cc(Nc3ncc(C4CC4)cc3C(=O)O)cc(-c3ccccc3Cl)c21` [Example 488, 2-((7-(2-chlorophenyl)-1-methyl-1H-indol-5-yl)amino)-5-cyclopropylnicotinic acid] was tested. Which IC50 did it give?
A: ≤ 10 nM

Q: How did the IC50 turn out when `Cn1ccc2cc(Nc3ncc(C4CC4)cc3C(=O)O)cc(-c3cccc(Cl)c3)c21` [Example 489, 2-((7-(3-chlorophenyl)-1-methyl-1H-indol-5-yl)amino)-5-cyclopropylnicotinic acid] was run?
A: ≤ 10 nM

Q: For `Cn1ccc2cc(Nc3ncc(C4CC4)cc3C(=O)O)cc(-c3ccc(Cl)cc3)c21` [Example 490, 2-((7-(4-chlorophenyl)-1-methyl-1H-indol-5-yl)amino)-5-cyclopropylnicotinic acid], which IC50 is on record?
A: ≤ 10 nM

Q: Which IC50 does the source give for `Cn1ccc2cc(Nc3ncc(C4CC4)cc3C(=O)O)cc(-c3ccccc3OC(F)(F)F)c21` [Example 491, 5-cyclopropyl-2-((1-methyl-7-(2-(trifluoromethoxy)phenyl)-1H-indol-5-yl)amino)nicotinic acid] here?
A: ≤ 10 nM

Q: With `Cn1ccc2cc(Nc3ncc(C4CC4)cc3C(=O)O)cc(-c3cccc(OC(F)(F)F)c3)c21` [Example 492, 5-cyclopropyl-2-((1-methyl-7-(3-(trifluoromethoxy)phenyl)-1H-indol-5-yl)amino)nicotinic acid] as the molecule, how does the IC50 read?
A: ≤ 10 nM

Q: For `Cn1ccc2cc(Nc3ncc(C4CC4)cc3C(=O)O)cc(-c3ccc(OC(F)(F)F)cc3)c21` [Example 493, 5-cyclopropyl-2-((1-methyl-7-(4-(trifluoromethoxy)phenyl)-1H-indol-5-yl)amino)nicotinic acid], which IC50 is on record?
A: ≤ 10 nM

Q: Which IC50 does the source give for `O=C(O)c1cc(C2CC2)cnc1Nc1ccc2c(ccn2Cc2cccc(OC(F)(F)F)c2)c1` [Example 496, 5-cyclopropyl-2-((1-(3-(trifluoromethoxy)benzyl)-1H-indol-5-yl)amino)nicotinic acid] here?
A: 10 to 100 nM

Q: With `Cc1cc(C)cc(Cn2ccc3cc(Nc4ncc(C5CC5)cc4C(=O)O)ccc32)c1` [Example 498, 5-cyclopropyl-2-((1-(3,5-dimethylbenzyl)-1H-indol-5-yl)amino)nicotinic acid] as the molecule, how does the IC50 read?
A: ≤ 10 nM

Q: How did the IC50 turn out when `O=C(O)c1cc(C2CC2)cnc1Nc1ccc2c(ccn2Cc2cc(C(F)(F)F)cc(C(F)(F)F)c2)c1` [Example 499, 2-((1-(3,5-bis(trifluoromethyl)benzyl)-1H-indol-5-yl)amino)-5-cyclopropylnicotinic acid] was run?
A: ≤ 10 nM

Q: `Cn1ccc2cc(Nc3ncc(C4CC4)cc3C(=O)O)cc(-c3ccccn3)c21` [Example 500, 5-cyclopropyl-2-((1-methyl-7-(pyridin-2-yl)-1H-indol-5-yl)amino)nicotinic acid] was tested. Which IC50 did it give?
A: 10 to 100 nM

Q: With `Cn1ccc2cc(Nc3ncc(C4CC4)cc3C(=O)O)cc(C3=CCCCC3)c21` [Example 504] as the molecule, how does the IC50 read?
A: ≤ 10 nM

Q: Which IC50 does the source give for `O=C(O)c1cc(C2CC2)cnc1Nc1ccc2c(ccn2Cc2cccc(O)c2)c1` [Example 505, 5-cyclopropyl-2-((1-(3-hydroxybenzyl)-1H-indol-5-yl)amino)nicotinic acid] here?
A: ≤ 10 nM

Q: For `COCCOc1cccc(Cn2ccc3cc(Nc4ncc(C5CC5)cc4C(=O)O)ccc32)c1` [Example 506, 5-cyclopropyl-2-((1-(3-(2-methoxyethoxyl)benzyl)-1H-indol-5-yl)amino)nicotinic acid], which IC50 is on record?
A: ≤ 10 nM

Q: How did the IC50 turn out when `COC/C=C/c1cccc(Cn2ccc3cc(Nc4ncc(C5CC5)cc4C(=O)O)ccc32)c1` [Example 508, (E)-5-cyclopropyl-2-((1-(3-(3-methoxyprop-1-en-1-yl)benzyl)-1H-indol-5-yl)amino)nicotinic acid] was run?
A: ≤ 10 nM

Q: How did the IC50 turn out when `COCCCc1cccc(Cn2ccc3cc(Nc4ncc(C5CC5)cc4C(=O)O)ccc32)c1` [Example 509, 5-cyclopropyl-2-((1-(3-(3-methoxypropyl)benzyl)-1H-indol-5-yl)amino)nicotinic acid] was run?
A: ≤ 10 nM

Q: `COCCNc1cccc(Cn2ccc3cc(Nc4ncc(C5CC5)cc4C(=O)O)ccc32)c1` [Example 510, 5-cyclopropyl-2-((1-(3-((2-methoxyethyl)amino)benzyl)-1H-indol-5-yl)amino)nicotinic acid] was tested. Which IC50 did it give?
A: ≤ 10 nM

Q: For `COCCN(C)c1cccc(Cn2ccc3cc(Nc4ncc(C5CC5)cc4C(=O)O)ccc32)c1` [Example 511, 5-cyclopropyl-2-((1-(3-((2-methoxyethyl)(methyl)amino)benzyl)-1H-indol-5-yl)amino)nicotinic acid], which IC50 is on record?
A: ≤ 10 nM

Q: How did the IC50 turn out when `CC(C)n1ccc2ccc(Nc3ncc(C4CC4)cc3C(=O)O)cc21` [Example 519, 5-cyclopropyl-2-((1-isopropyl-1H-indol-6-yl)amino)nicotinic acid] was run?
A: 10 to 100 nM

Q: With `CC(C)Cn1ccc2ccc(Nc3ncc(C4CC4)cc3C(=O)O)cc21` [Example 521, 5-cyclopropyl-2-((1-isobutyl-1H-indol-6-yl)amino)nicotinic acid] as the molecule, how does the IC50 read?
A: ≤ 10 nM

Q: For `O=C(O)c1cc(C2CC2)cnc1Nc1ccc2ccn(-c3ccccc3)c2c1` [Example 525, 5-cyclopropyl-2-((1-phenyl-1H-indol-6-yl)amino)nicotinic acid], which IC50 is on record?
A: ≤ 10 nM

Q: For `O=C(O)c1cc(C2CC2)cnc1Nc1ccc2c(-c3ccccc3)nccc2c1` [Example 527, 5-cyclopropyl-2-((1-phenylisoquinolin-6-yl)amino)nicotinic acid], which IC50 is on record?
A: ≤ 10 nM

Q: Which IC50 does the source give for `O=C(O)c1cc(C2CC2)cnc1Nc1ccc2c(-c3ccccc3)ncnc2c1` [Example 529, 5-cyclopropyl-2-((4-phenylquinazolin-7-yl)amino)nicotinic acid] here?
A: 10 to 100 nM

Q: `O=C(O)c1cc(C2CC2)cnc1Nc1cccc2c(-c3ccccc3)ncnc12` [Example 531, 5-cyclopropyl-2-((4-phenylquinazolin-8-yl)amino)nicotinic acid] was tested. Which IC50 did it give?
A: 10 to 100 nM

Q: `O=C(O)c1cc(C2CC2)cnc1Nc1ccc2ncnc(-c3ccccc3)c2c1` [Example 533, 5-cyclopropyl-2-((4-phenylquinazolin-6-yl)amino)nicotinic acid] was tested. Which IC50 did it give?
A: 100 to 1000 nM

Q: Which IC50 does the source give for `Cc1cn(CC(C)C)c2ccc(Nc3ncc(C4CC4)cc3C(=O)O)cc12` [Example 535, 5-cyclopropyl-2-((1-isobutyl-3-methyl-1H-indol-5-yl)amino)nicotinic acid] here?
A: ≤ 10 nM

Q: How did the IC50 turn out when `O=C(O)c1cc(C2CC2)cnc1Nc1cccc2c1ccn2CC1CCCC1` [Example 537, 2-((1-(Cyclopentylmethyl)-1H-indol-4-yl)amino)-5-cyclopropylnicotinic acid] was run?
A: ≤ 10 nM

Q: With `O=C(O)c1cc(C2CC2)ccc1Nc1cccc2c1ccc(=O)n2-c1ccccc1` [Example 539, 5-cyclopropyl-2-((2-oxo-1-phenyl-1,2-dihydroquinolin-5-yl)amino)benzoic acid] as the molecule, how does the IC50 read?
A: ≤ 10 nM

Q: Which IC50 does the source give for `CC(C)Cn1ncc2cc(Nc3ncc(C4CC4)cc3C(=O)O)ccc21` [Example 541, 5-cyclopropyl-2-((1-isobutyl-1H-indazol-5-yl)amino)nicotinic acid] here?
A: 10 to 100 nM

Q: `O=C(O)c1cc(C2CC2)cnc1Nc1cnc2c(ccn2Cc2ccccc2)c1` [Example 545, 2-((1-benzyl-1H-pyrrolo(2,3-b)pyridin-5-yl)amino)-5-cyclopropylnicotinic acid] was tested. Which IC50 did it give?
A: ≤ 10 nM

Q: How did the IC50 turn out when `CC(C)Cn1ccc2cc(Nc3ncc(C4CC4)cc3C(=O)O)cnc21` [Example 547, 5-cyclopropyl-2-((1-isobutyl-1H-pyrrolo(2,3-b)pyridin-5-yl)amino)nicotinic acid] was run?
A: 10 to 100 nM
